{"source": "paper PMC13195669", "about": "“GPR3 Ligands Discovered through Combined Virtual and Conformational Biosensor-Based Screening” (Journal of the American Chemical Society, 2026)", "format_in_all_cases": "cell-based", "key": {"[1]": {"biological_target": "T1, GPR3 (Homo sapiens, UniProt P46089)", "T1 construct": "host or cells: HEK293A, transient", "T1 sequence (P46089 whole entry)": "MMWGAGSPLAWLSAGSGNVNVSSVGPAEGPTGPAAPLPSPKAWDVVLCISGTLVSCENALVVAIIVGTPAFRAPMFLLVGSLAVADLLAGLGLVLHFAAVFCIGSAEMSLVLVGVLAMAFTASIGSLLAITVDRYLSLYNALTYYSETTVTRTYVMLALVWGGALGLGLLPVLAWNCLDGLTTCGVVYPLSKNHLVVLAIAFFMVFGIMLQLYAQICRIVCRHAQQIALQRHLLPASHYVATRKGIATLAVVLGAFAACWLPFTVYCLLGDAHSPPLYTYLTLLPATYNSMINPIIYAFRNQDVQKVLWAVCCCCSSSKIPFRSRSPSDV", "assay": "cAMP GloSensor 22F, GPR3-transfected HEK293A cells", "conditions": "read-out: EC50 of cAMP decrease in GPR3-expressing cells", "excerpt": "(§1) Next, we used the classical cAMP GloSensor technology to assess the target selectivity profile of 33. […] In addition, we tested the effects of 33 on cAMP changes mediated by agonist-stimulated GPCRs phylogenetically close to GPR3 and coupling to Gs or Gi/o proteins. […]\n(§2) conditioning and no constraints were applied. The poses were visually inspected and the most favorable one that coincides with the co-solved ligand according to the available structures was chosen.\n(§3) Plasmids and molecular cloning\n(§4) The H187-EPAC-FRET sensor7 was kindly provided by K. Jalink (The Netherlands Cancer Institute, Amsterdam, The Nether-lands). The BRET-based cAMP sensor CAMYEL8 was kindly provided by Laura Humphrys (University of Regensburg, Regens-burg, Germany). Plasmids encoding the conformational biosensors α2AAR- and β2AR-HaloTag/Nluc9 and the Gs heterotrimer dissociation sensor10 were previously described. The expression plasmid encoding N-terminally HA-tagged GPR3 (cat. no.\n(§5) #GPR003TN00) on a pcDNA3.1+ vector was obtained from the cDNA resource center (cdna.org). The Nluc and HaloTag in-serts were amplified with overhanging restriction sites from β2AAR- HaloTag/Nluc and ligated to the full-length C-terminus or inserted into icl3 of GPR3, respectively, to obtain the conformational biosensor GPR3-HaloTag/Nluc. […]"}, "[2]": {"biological_target": "T2, GPR6 (Homo sapiens, UniProt P46095)", "T2 construct": "expressed in transfected cells; host or cells: HEK293A, transient", "T2 sequence (P46095 whole entry, species assumed)": "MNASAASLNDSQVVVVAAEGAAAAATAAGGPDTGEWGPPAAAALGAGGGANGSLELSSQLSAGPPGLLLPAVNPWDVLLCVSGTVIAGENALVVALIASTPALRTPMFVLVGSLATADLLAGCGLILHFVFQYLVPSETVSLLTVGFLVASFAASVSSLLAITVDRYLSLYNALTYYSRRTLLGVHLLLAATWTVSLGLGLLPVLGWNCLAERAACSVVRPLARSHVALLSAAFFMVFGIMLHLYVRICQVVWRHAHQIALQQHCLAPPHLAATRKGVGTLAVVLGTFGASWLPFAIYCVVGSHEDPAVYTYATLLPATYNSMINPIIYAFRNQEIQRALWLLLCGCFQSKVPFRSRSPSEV", "assay": "cAMP GloSensor 22F, GPR6-transfected HEK293A cells", "excerpt": "as §1, §2, §3, §4, §5"}, "[3]": {"biological_target": "T3, GPR12 (Homo sapiens, UniProt P47775)", "T3 construct": "expressed in transfected cells; host or cells: HEK293A, transient", "T3 sequence (P47775 1-334)": "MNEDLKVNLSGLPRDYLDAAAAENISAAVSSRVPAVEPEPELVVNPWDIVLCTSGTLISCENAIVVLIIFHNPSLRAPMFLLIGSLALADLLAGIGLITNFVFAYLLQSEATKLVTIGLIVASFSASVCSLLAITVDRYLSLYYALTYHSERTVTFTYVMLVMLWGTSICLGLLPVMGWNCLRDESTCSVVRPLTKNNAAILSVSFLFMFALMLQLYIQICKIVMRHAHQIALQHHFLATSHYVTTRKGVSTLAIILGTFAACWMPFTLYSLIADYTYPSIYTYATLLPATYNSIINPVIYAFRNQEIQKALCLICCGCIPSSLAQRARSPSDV", "assay": "cAMP GloSensor 22F, GPR12-transfected HEK293A cells", "excerpt": "as §1, §2, §3, §4, §5"}}, "note": "pEC50: −log10 of the molar value.", "data": [{"smiles": "N=c1n(Cc2ccccc2)c2ccccc2n1CC1CC1", "note": "[compound 33]", "values": [{"measurement": "pEC50", "setting": "[1]", "result": 5.70}, {"measurement": "receptor-specific change in cAMP, GPR6", "setting": "[2]", "result": "no receptor-specific changes in cAMP levels below 100 μM"}, {"measurement": "receptor-specific change in cAMP, GPR12", "setting": "[3]", "result": "no receptor-specific changes in cAMP levels below 100 μM"}]}]}
